Patent publication US20040024024A1, “Aromatic sulfone hydroxamates and their use as protease inhibitors” (priority 2001, published 2004)

Assays:
Assay type in all cases: biochemical
Human recombinant MMP-9 = target: T1, Human recombinant MMP-9 (Homo sapiens, UniProt P14780); assay: In vitro MMP inhibition, Ki determination (fluorogenic substrate II)
T1 construct: made in house; host or cells: MMP-9-transfected HT1080 cells (spent media)
Protocol: (§1) Several hydroxamates and salts thereof were analyzed in in vitro assays to determine their ability to inhibit the MMP cleavage of peptide substrates. Inhibition (Ki) and IC50 constants were calculated from the assayed hydroxamate-MMP interactions.
(§2) Human recombinant MMP-1, MMP-2, MMP-9, MMP-13, and MMP-14 were used in this assay. All enzymes were prepared in Assignee's laboratories following usual laboratory procedures. Protocols for the preparation and use of these enzymes are available in the scientific literature. See, e.g., Enzyme Nomenclature (Academic Press, San Diego, Calif., 1992) (and the citations therein). See also, Frije et al., J. Biol. Chem., 26(24), 16766-73 (1994).
The MMP-9 proenzyme was purified by gelatin Sepharose chromatography from spent media of MMP-9-transfected HT1080 cells provided by Dr. Howard Welgus of Washington University (St. Louis, Mo.).
(§3) All MMPs were activated using 4-aminophenylmercuric acetate (“APMA”, Sigma Chemical, St. Louis, Mo.) or trypsin. MMP-9 also was activated using human recombinant MMP-3 (purified in Assignee's laboratory following standard cloning and purification techniques).
(§4) Two fluorogenic, methoxycoumarin-containing polypeptide substrates were used in the MMP inhibition assays:
(§5) MCA-ArgProLeuGlyLeuDpaAlaArgGluArgNH2 (II)
(§6) Here, “Dpa” is 3-(2,4-dinitrophenyl)-L-2,3-diaminopropionyl group, and “MCA” is 7-methoxycoumarin-4-yl acetyl. Substrate (I) was purchased from Baychem (Redwood City, Calif.), and substrate II was prepared Assignee's laboratory. Substrate I was used in the IC50 determination assays, while substrate II was used in the Ki determination assays. In the absence of MMP inhibitory activity, either substrate is cleaved at the Gly-Leu peptide bond. This cleavage separates the highly fluorogenic peptide from the 2,4-dinitrophenyl quencher, thus resulting in increase of fluorescent intensity.
(§7) The stock solutions of the assayed hydroxamates (or salts thereof) were prepared in 1% dimethyl sulfoxide (DMSO). These stock solutions were diluted in Buffer A (100 mM Tris-HCl, 100 mM NaCl, 10 mM CaCl2, 0.05% polyoxyethylene 23 lauryl ether, pH 7.5) to obtain solutions with different hydroxamate concentrations, i.e., assay solutions with different concentrations of the assayed MMP inhibitory compound. The experiment controls contained the same amount of Buffer A/DMSO as the assayed sample, but contained no hydroxamate (or salt thereof).
(§8) The assays from which the Ki determinations were made were performed as follows. The assayed hydroxamate samples were incubated in separate wells of untreated white polystyrene plates (Nunc Nalgene International, Rochester, N.Y.), and analyzed on a Tecan SpectraFlour Plus plate reader. The excitation wavelength was 330 nm, and the emission wavelength—420 nm. All samples (assayed hydroxamates and controls) were incubated in separate plate wells at room temperature for 1 hr in the presence of 4 μM of MMP substrate (II). In the absence of MMP inhibitory activity, substrate II was cleaved at the Gly-Leu bond resulting in an increase of relative fluorescence. Inhibition was observed as a reduced rate of this increase in relative fluorescence. The various hydroxamates were analyzed using a single low enzyme concentration with a single substrate concentration fixed at or below the Km. This protocol is a modification of method by Knight et al., FEBS Lett., 296(3), 263-266 (1992). Apparent inhibitory constants were determined by non-linear regression of reaction velocity as a function of inhibitor and enzyme concentration using Morrison's equation, as described by Kuzmic, Anal. Biochem. 286, 45-50 (2000). Modifications were made in the non-linear regression method to allow a common control reaction rate and effective enzyme concentration to be shared between all dose-response relationships on a given assay plate. […]

Human recombinant MMP-1 = target: T2, Human recombinant MMP-1 (Homo sapiens, UniProt P03956); assay: as above
T2 construct: made in house; host or cells: MMP-1-transfected HT-1080 cells (spent media)
T2 sequence (P03956 100-469): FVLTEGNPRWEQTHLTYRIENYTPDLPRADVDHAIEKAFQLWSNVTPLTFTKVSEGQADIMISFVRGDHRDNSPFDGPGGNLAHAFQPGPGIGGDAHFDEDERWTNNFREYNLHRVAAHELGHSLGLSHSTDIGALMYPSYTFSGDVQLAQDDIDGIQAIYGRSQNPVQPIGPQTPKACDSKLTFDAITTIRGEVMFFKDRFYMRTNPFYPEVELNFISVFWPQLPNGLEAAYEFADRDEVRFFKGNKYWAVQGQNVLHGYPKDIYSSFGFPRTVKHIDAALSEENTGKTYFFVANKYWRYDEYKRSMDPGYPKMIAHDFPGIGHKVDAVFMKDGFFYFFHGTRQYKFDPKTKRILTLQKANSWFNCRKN
Protocol: as §1, §2
The MMP-1 proenzyme was purified from the spent media of MMP-1-transfected HT-1080 cells provided by Dr. Harold Welgus of Washington University (St. Louis, Mo.). The protein was purified on a zinc chelating column.
as §3, §4, §5, §6, §7, §8

Human recombinant MMP-13 = target: T3, Human recombinant MMP-13 (Homo sapiens, UniProt P45452); assay: In vitro MMP inhibition, IC50 determination (fluorogenic substrate I)
T3 construct: made in house; host or cells: baculovirus / insect cells
Outline: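 Fluorescence at 415 nm (excitation 328 nm) reports Gly-Leu cleavage of 4 μM quenched methoxycoumarin peptide substrate I. Human recombinant MMP-13, activated by trypsin or APMA, was incubated at room temperature with varied inhibitor concentrations in pH 7.5 Tris/NaCl/CaCl2 buffer; IC50 derived from reduced fluorescence.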

[1] = substrate (II) 4 μM, 1 hr room temperature, apparent Ki, values in parenthesis

T1 sequence (P14780 107-707 limits assumed): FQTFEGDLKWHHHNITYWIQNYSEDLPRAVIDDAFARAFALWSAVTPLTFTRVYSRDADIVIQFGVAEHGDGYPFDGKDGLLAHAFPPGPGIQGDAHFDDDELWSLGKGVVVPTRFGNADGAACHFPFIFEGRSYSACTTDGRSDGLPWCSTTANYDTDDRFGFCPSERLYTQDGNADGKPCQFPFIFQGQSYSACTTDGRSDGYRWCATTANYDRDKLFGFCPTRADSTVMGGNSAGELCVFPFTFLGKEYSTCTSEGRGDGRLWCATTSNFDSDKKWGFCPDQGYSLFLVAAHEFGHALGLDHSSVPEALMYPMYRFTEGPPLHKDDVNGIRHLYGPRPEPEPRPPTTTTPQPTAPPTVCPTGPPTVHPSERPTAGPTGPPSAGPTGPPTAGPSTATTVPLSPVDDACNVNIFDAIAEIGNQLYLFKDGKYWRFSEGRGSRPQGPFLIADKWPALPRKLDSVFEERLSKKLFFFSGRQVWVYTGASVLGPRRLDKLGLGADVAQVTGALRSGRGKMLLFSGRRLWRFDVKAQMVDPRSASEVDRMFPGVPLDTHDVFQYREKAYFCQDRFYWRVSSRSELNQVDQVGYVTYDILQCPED

Compound	Ki (Human recombinant MMP-9; value in parentheses)	Ki (Human recombinant MMP-1; value in parentheses)	IC50 (Human recombinant MMP-13; value outside parentheses)	Ki (Human recombinant MMP-9; value in parenthesis)	Ki (Human recombinant MMP-1; value in parenthesis)	IC50 (Human recombinant MMP-13; value outside parenthesis)	further results
O=C(Cc1csc2ccccc12)NCCOc1ccc(S(=O)(=O)C2(C(=O)NO)CCOCC2)cc1 [Example 596]	308 nM	> 10000 nM	2.7 nM	–	–	–	–
COCCN1CCC(C(=O)NO)(S(=O)(=O)c2ccc(OCCCc3nnc(-c4ccccc4C(F)(F)F)o3)cc2)CC1 [Example 178]	–	–	–	306 nM	> 10000 nM	7.8 nM	–
O=C(CCCOc1ccc(S(=O)(=O)C2(C(=O)NO)CCOCC2)cc1)Nc1ccc(OC(F)(F)F)cc1 [Example 250]	–	–	–	12.5 nM	1440 nM	0.3 nM	–
Cc1cc(OC(F)(F)F)ccc1NC(=O)CCCOc1ccc(S(=O)(=O)C2(C(=O)NO)CCOCC2)cc1 [Example 229]	–	–	–	281 nM	955 nM	1.7 nM	–
O=C(NO)C1(S(=O)(=O)c2ccc(OCCCc3nc(-c4ccccc4)no3)cc2)CCOCC1 [Example 584]	12.6 nM	2760 nM	3.6 nM	–	–	–	–
COCCN1CCC(C(=O)NO)(S(=O)(=O)c2ccc(OCCCc3nc(-c4ccccc4OC(F)(F)F)no3)cc2)CC1 [Example 152]	–	–	–	44.5 nM	> 10000 nM	11.8 nM	–
COc1ccc(/C(C#N)=C/CCCOc2ccc(S(=O)(=O)C3(C(=O)NO)CCN(C4CC4)CC3)cc2)cc1 [Example 233]	–	–	–	509 nM	> 10000 nM	0.1 nM	–
O=C(NO)C1(S(=O)(=O)c2ccc(OCCCc3cc(-c4ccc(OC(F)(F)F)cc4)cs3)cc2)CCOCC1 [Example 608]	1370 nM	> 10000 nM	6.6 nM	–	–	–	–
NC(=O)c1cccc(OCCOc2ccc(S(=O)(=O)C3(C(=O)NO)CCOCC3)cc2)c1 [Example 54]	–	–	–	–	–	–	Ki (Human recombinant MMP-9; [1]): 388 nM; Ki (Human recombinant MMP-1; [1]): > 10000 nM; IC50 (Human recombinant MMP-13; substrate (I) 4 μM, room temperature, values not in parenthesis): 10.5 nM

Further lines, with some results ahead:

Ki (Human recombinant MMP-9; value in parentheses)	Ki (Human recombinant MMP-1; value in parentheses)	IC50 (Human recombinant MMP-13; value outside parentheses)	Ki (Human recombinant MMP-9; value in parenthesis)	Ki (Human recombinant MMP-1; value in parenthesis)	IC50 (Human recombinant MMP-13; value outside parenthesis)	Compound	further results
3150 nM	> 10000 nM	14.9 nM	–	–	–	O=C(NO)C1(S(=O)(=O)c2ccc(OCCCc3cccc(-c4ccc5c(c4)OCCO5)c3)cc2)CCOCC1 [Example 627]	–
1250 nM	3210 nM	0.3 nM	–	–	–	O=C(NO)C1(S(=O)(=O)c2ccc(OCCCc3cncc(-c4ccc(F)cc4)c3)cc2)CCOCC1 [Example 523]	–
–	–	–	473 nM	7360 nM	3.3 nM	O=C(NO)C1(S(=O)(=O)c2ccc(OCCCc3cccc(-c4ccco4)c3)cc2)CCOCC1 [Example 97]	–
–	–	–	146 nM	3580 nM	0.2 nM	O=C(NO)C1(S(=O)(=O)c2ccc(OCCc3cccc(-c4cccnc4)c3)cc2)CCOCC1 [Example 125]	–
–	–	–	7970 nM	> 10000 nM	28.3 nM	O=C(NO)C1(S(=O)(=O)c2ccc(OCCCc3cccc(-c4ccc(OC(F)(F)F)cc4)c3)cc2)CCOCC1 [Example 147]	–
–	–	–	161 nM	> 10000 nM	0.2 nM	O=C(NO)C1(S(=O)(=O)c2ccc(OCCc3cccc(-c4ccncc4)c3)cc2)CCOCC1 [Example 113]	–
–	–	–	334 nM	> 10000 nM	0.5 nM	O=C(NO)C1(S(=O)(=O)c2ccc(OCCCc3ccnc(-c4ccccc4)c3)cc2)CCOCC1 [Example 197]	–
6780 nM	> 10000 nM	117 nM	–	–	–	O=C(NO)C1(S(=O)(=O)c2ccc(OCCCc3cccc(-c4cc5ccccc5s4)c3)cc2)CCOCC1 [Example 633]	–
